Reference: US7037660B2, “Methods for detecting and quantifying binding and inhibition of binding of species to nucleic acids” (Message Pharmaceuticals, priority 2001, dated 2006)

Tests used:
[1] = Proton exchange pKA of probe; assay type: physicochemical; conditions: dynamic proton exchange of the probe
Description: (§1) Displacement of Mn^2+ from RNA by RSG1.2, or neomycin b: Binding of RSG1.2 and neomycin b to each of the hairpins was studied at [RNA] between 20 and 30 μM, and again at [RNA]˜3 μM. The higher concentration studies were performed in a manner identical to that described above for the Mg^2+ exchange reactions. For the low concentration studies, HPO3^2− (20 mM) was used as the probe ion. Reactions were run in 10 mM PIPES buffer, with 45 mM KCl and [Mn^2+] between 50 and 150 nM. The pH of the samples was maintained at 7.8 in these experiments. Studies utilizing HPO3^2− are impractical at lower pH where the probe undergoes dynamic proton exchange (pKA=6.0) leading to significant shortening of the diamagnetic ^31P T2.

RRE1 = test: Displacement of Mn2+ from RNA by neomycin b (probe 31P relaxation); assay type: binding; conditions: each condition studied
Description: (§2) Mn^2+ binding by RNA constructs, and its displacement by either K^+ or Mg^2+. Samples containing MeOPH (5 mM) and PIPES buffer (5 mM, pH=7.2), and 3 μM Mn^2+ were titrated with each RNA. The ^31P transverse relaxation rates (R2=1/T2) of the probe in the resulting solutions were measured. Plots of R2 versus [RNA] were prepared. The effects of [K^+] and [Mg^2+] on Mn^2+ binding were determined by titrating similar solutions containing buffer, MeOPH, Mn^2+ and one of the RNAs (10 to 30 μM) with solutions of either KCl or MgCl2, and monitoring the relaxation rate of the probe as a function of cation concentration. The effects of [K^+] were studied over the range of 12.5 to 150 mM ([…] K^+ is reportedly 140 mM). Mn^2+ displacements from each of the hairpins by Mg^2+, neomycin b, and RSG1.2 were studied in the absence of added KCl and with sufficient KCl added to bring the total [K^+] to 100 mM.
as §1, with “The pH of the samples was maintained at 7.8 in these experiments. Studies utilizing HPO3^2− are impractical at lower pH where the probe undergoes dynamic proton exchange (pKA=6.0) leading to significant shortening of the diamagnetic ^31P T2.” left out

RRE2 = test: as above; assay type: binding; conditions: each condition studied
Description: as §2
as §1, with “The pH of the samples was maintained at 7.8 in these experiments. Studies utilizing HPO3^2− are impractical at lower pH where the probe undergoes dynamic proton exchange (pKA=6.0) leading to significant shortening of the diamagnetic ^31P T2.” left out

another RRE1 model = conditions: cited from earlier work
[2] = tested on: 27-nt A-site RNA construct; test: Displacement of Mn2+ from RNA by neomycin (probe 31P relaxation); assay type: binding
Description: The ^31P T2 was measured for each sample by varying the length (number of pulses) of the CPMG portion of the pulse sequence in FIG. 2 and determining the effect of this change on the intensity (i) of the signals. […] The dl delay was typically 5 to 20 seconds, and delays in the inept and reverse inept parts of the sequence were set to a value equal to 1/4J, where J is the ^1H—^31P coupling constant. Delays between pulses in the CPMG train varied from 50 to 500 microseconds.
The data shown in FIG. 9 were most consistent with a model where three neomycin molecules were bound to each RNA molecule with subsequent release of Mn^2+.
as §2
as §1, with “Studies utilizing HPO3^2− are impractical at lower pH where the probe undergoes dynamic proton exchange (pKA=6.0) leading to significant shortening of the diamagnetic ^31P T2.” left out

Row | equivalents of neomycin bound (RRE1) | equivalents of neomycin bound (RRE2) | neomycin molecules bound to each RNA molecule ([2]; RNA 27 μM, Mn^2+ 16 μM (Example 11)) | equivalents of neomycin bound ([2]; [RNA]=2.7 μM, 100 mM K^+) | equivalents of neomycin bound ([2]; [RNA]=27 μM (Example 16, data not shown)) | SMILES | pKA [1] | equivalents of neomycin b bound (another RRE1 model)
1 | – | – | – | – | – | O=[PH](O)O [HPO3^2−, phosphite dianion] | 6.0 | –
2 | multiple equivalents | multiple equivalents | three | single equivalent | 3 | NC[C@@H]1O[C@H](O[C@H]2[C@@H](O)[C@H](O[C@@H]3[C@@H](O)[C@H](N)C[C@H](N)[C@H]3O[C@H]3O[C@H](CN)[C@@H](O)[C@H](O)[C@H]3N)O[C@@H]2CO)[C@H](N)[C@@H](O)[C@@H]1O [neomycin, neomycin b] | – | three
